The values that follow come from patent US20250275539A1, “APYRASE INHIBITORS” (Texas Crop Science, Inc., priority 2024, published 2025).

What all share (experiment): In vitro assessment of combination activity with fungicides, pathogen growing on agar
Holding throughout (format): cell-based

In experiment [1] the test system is strain of Zymoseptoria tritici with a reduced susceptibility to SDHI fungicides. The settings on record: in combination with azoxystrobin, fluxapyroxad or desthio prothioconazole. How it is done: (§1) Selected compounds are assessed in combination with fungicides against a range of commercially important plant pathogenic fungi.
(§2) The test is conducted as follows. A fungicide is applied to a fungal plant pathogen at a rate slightly below that at which it gave any control, in combination with a suitable dose of the test compound. The test compounds are recorded as active if control of the pathogen was observed.
(§3) In more detail, the test is conducted as follows. For each combination of fungicide, pathogen and test compound, the following wells are used. Well 1 contains a fungal pathogen growing on agar, and a fungicide at a rate just below that at which it gave any control of the pathogen. Well 2 is the same as Well 1, except that the test compound is also added at Rate 1. Well 3 is the same as Well 2, except that the test compound is added at Rate 2, where Rate 2 is higher than Rate 1. Finally, as a benchmark, Well 4 is the same as Well 1, except that it contained the fungicide at a higher rate, at which it gave partial control of the pathogen. Each of the Wells 1 to 4 are run in duplicate, giving a total of 8 wells for each combination of fungicide, pathogen and test compound. For each well, after a suitable period of incubation, a visual assessment of the % control of the pathogen by the fungicide is made.
(§4) The following fungicides are used in this assay: azoxystrobin, fluxapyroxad, and desthio prothioconazole. The following fungal pathogens are used in this assay: First, a strain of Zymoseptoria tritici with a reduced susceptibility to strobilurin fungicides; second a strain of Zymoseptoria tritici with a reduced susceptibility to SDHI fungicides (i.e., those that inhibit succinate dehydrogenase); and third, Microdochium nivale. […] In contrast, compounds of the present disclosure are effective in the combination assay, enhancing fungicidal activity of one or more fungicides against at least one strain.

In a further experiment the test system is Microdochium nivale. The settings on record: in combination with azoxystrobin at a rate just below that giving control; visual % control. How it is done: as §1, §2, §3, §4
For experiment [2], the system named is strain of Zymoseptoria tritici with a reduced susceptibility to strobilurin fungicides. The settings on record: in combination with azoxystrobin, fluxapyroxad or desthio prothioconazole. How it is done: as §1, §2, §3, §4

On to `O=C(Nc1cccc([N+](=O)[O-])c1)c1cccc(S(=O)(=O)Nc2ccc(Br)cc2)c1` [Roux Compound 13], for which the “enhancement of fungicide activity against Zymoseptoria tritici strain (reduced susceptibility to SDHI fungicides)” value in experiment [1] is on record as “failing to enhance activity of any fungicide”. Besides, the “enhancing the activity of azoxystrobin against Microdochium nivale” value in the experiment with Microdochium nivale is on record as “exhibited activity”. Further, in experiment [2], the “enhancement of fungicide activity against Zymoseptoria tritici strain (reduced susceptibility to strobilurin fungicides)” value was “failing to enhance activity of any fungicide”.
